Data as given in patent US10100088B2, “Glycopeptide derivatives for the preservation and protection of biological materials and microorganisms” (TFCHEM, priority 2014, dated 2018).
Where two headings read alike, the source gives them in different places.

Test system: neonatal skin fibroblasts (CCD-27SK, ATCC CRL-1475)
Settings: for Percentage of viability: 5 mg/mL in serum free medium
Method: II-1. Effect of Glycopeptide 17 on the Preservation/Protection of Neonatal Skin Fibroblasts Under Starvation Conditions. Evaluation by Trypan Blue Exclusion Method.
• The neonatal skin fibroblasts (Cell line: CCD-27SK, ATCC number CRL-1475) were grown with DMEM medium supplemented with Fetal Bovine Serum 10% final, antibiotics (Penicillin/Streptomycin) 1% final and Amphotericin B 0.1% final. • Fibroblasts were grown in 75 cm^2 culture flask to 80% confluence, in 37° C. and 10% CO2 incubator. The medium was changed every two days by 37° C. preheated fresh medium. Starvation Medium • This medium was composed of 45% subculturing medium without Fetal Bovine Serum mixed with 55% of Phosphate Buffer Saline 1× containing EDTA (final concentration of 0.45 mM). This was referred to as serum-free medium. Product Preparation • Compound 17 (MM=603.4 g/mol) was diluted in starvation medium to 5 mg/ml final and pH was adjusted at 7.4 by addition of NaOH 1N. General Experimental Procedure Assays on 96 Well Plates • Fibroblast cells were concentrated to 2.10^5 cells/ml and 100 μl of cell suspension was added in wells of a 96-well plate and incubated in 37° C. and 10% CO2 incubator for 4 hours. • After cell adhesion the medium was changed and plates were incubated (37° C.-10% CO2) to perform the assay as follow: • One plate for each sampling times: D0, D3, D4, D5, D6, D7, D10, D12 days • Three wells for each condition (triplicate count) added with 120 μl of culture medium (surviving control), starvation medium (serum-free control) or compound 17 solution at 5 mg/ml. […] So, only the dead cells are blue at microscopic observation. • For sampling, 110 μl of Trypan Blue (SIGMA T8154) was added to 110 μl of trypsinated cell suspension of matching well for counting. • […] of the trypan blue/cell mixture are dropped to a hemacytometer. Cells are counting by using a Neubauer-counting chamber. The unstained (viable) and stained (nonviable) cells are counted separately on 9 areas of 1 mm^2 forming a large square of 9 mm^2 and added to obtain the total number of cells per sample. An average of three counts was used to calculate the viability percentage as: [Number of viable cells/total number of cells]*100 • The cell viability percentages from cultures under starvation conditions were compared with control culture for several days after their addition (D0, D3, D4, D5, D6, D7, D10, D12).

## C[C@H](NC(=O)[C@H](C)NC(=O)[C@@H](N)CCCCNCC(F)(F)C1(O)O[C@H](CO)[C@H](O)[C@H](O)[C@H]1O)C(=O)O.Cl.Cl (some centres unmarked) [Compound 17]
D 0
  Percentage of viability: 96.69 ± 1.85%
D 0, listed as compound 17
  Percentage of viability: 97%
D 3
  Percentage of viability: 91.03 ± 1.88%
D 4
  Percentage of viability: 88.98 ± 2.48%
D 5
  Percentage of viability: 86.65 ± 4.26%
D 6
  Percentage of viability: 85.53 ± 1.57%
D 7
  Percentage of viability: 83.20 ± 3.72%
D 10
  Percentage of viability: 80.62 ± 3.72%
D 12
  Percentage of viability: 77.03 ± 2.02%
D 12, listed as compound 17
  Percentage of viability: 77%
Starvation medium, 5 mg/ml, 12 days
  preservative/protective effect on skin fibroblasts (in words): significant preservative/protective effect
